Experiment: Storage stability in polyethylene bottles, Experiment 6 (other alkalizing agents)
Format: physicochemical
Method: It was also investigated whether the stabilization achieved according to the invention with the particularly preferred agent MIPA is also achieved with other alkalizing agents.
Samples of the solutions were stored in bottles made of polyethylene at −5° C., 25° C. and 40° C. in order to investigate the stability.

SMILES: CCCCCCCCCCCCN(CCCN)CCCN [N,N-bis(3-aminopropyl)-dodecylamine]
- Storage stability / compatibility (conclusion in words): incompatible with TTT

From US10584283B2, “Preservative for technical products” (Schülke & Mayr GmbH, priority 2015, dated 2020)
